These results are taken from US5449672A, “Alkylaminoalkylpyrrolidinylthiocarbapenem derivatives” (Banyu Pharmaceutical Co., Ltd., priority 1991, dated 1995).

Values after ≈ are worked out from the molar mass of the structure shown. Where two headings read alike, the source gives them in different places.

The test system of series [1] is P. aeruginosa MB5002. Briefly: Minimum inhibitory concentration (MIC), agar plate dilution method, P. aeruginosa MB5002. The format is cell-based. Conditions: Pseudomonas aeruginosa, read-out: Minimum Inhibitory Concentration (MIC). The protocol:
(§1) One platinum loopful of each test microorganism incubated overnight in Mueller Hinton broth, was inoculated to Mueller Hinton agar (inoculum size: 10^6 CFU/ml). Such culture media contained antibacterial agents in various concentrations. After incubation at 37° C. for 16 hours, the minimum inhibitory concentrations (MIC: μg/ml) were measured. Further, the DHP-I susceptibility was quantitatively analyzed by the method by Kropp et al. (Antimicrob. Agents Chemother., vol. 22, p. 62-70 (1982)), whereby the smaller the numerical value representing the ratio to imipenem (=1.0), the higher the stability.
(§2) The minimum inhibitory concentrations and the DHP-I susceptibility of the compounds of the present invention were compared with imipenem and the compound of REFERENCE EXAMPLE 4.

Series [2] concerns P. aeruginosa MB5178. Briefly: Minimum inhibitory concentration (MIC), agar plate dilution method, P. aeruginosa MB5178. Particulars: Pseudomonas aeruginosa, read-out: Minimum Inhibitory Concentration (MIC). Type of series: cell-based. The protocol:
as §1, §2

In series [3] the test system is DHP-I (renal dehydropeptidase I). The series can be described thus: DHP-I susceptibility, method by Kropp et al. Particulars: ratio to imipenem (=1.0); the smaller the value, the higher the stability. Type of series: in vitro ADME. The protocol:
as §1, §2

In series [4] the test system is gram positive bacteria and gram negative bacteria. Particulars: literature, in words; cited from earlier work.
The subject of series [5] is Methicillin resistant Staphylococcus aureus and resistant Pseudomonas aeruginosa. Conditions: prior-art compounds; highly methicillin resistant S. aureus and resistant P. aeruginosa; cited from earlier work.
The test system of series [6] is DHP-I. Particulars: in vivo; human kidney for imipenem; cited from earlier work.
For series [7] the following is noted: cited from earlier work.
For series [8] the following is noted: due to the decomposition products; cited from earlier work.
In series [9] the test system is β-lactamase. Particulars: literature, in words; cited from earlier work.
For series [10] the following is noted: in words; cited from earlier work.
The mark [11] stands for this setting: P. aeruginosa MB5002, Mueller Hinton agar, inoculum 10^6 CFU/ml, 37° C., 16 hours.
[12] abbreviates: P. aeruginosa MB5178, Mueller Hinton agar, inoculum 10^6 CFU/ml, 37° C., 16 hours.

As to `CNCC[C@@H]1C[C@H](SC2=C(C(=O)O)N3C(=O)[C@H]([C@@H](C)O)[C@H]3[C@H]2C)CN1` [Example 1, (1R,5S,6S)-6-[(R)-1-Hydroxyethyl]-1-methyl-2-[(2R,4S)-2-[2-(methylamino)ethyl]pyrrolidin-4-ylthio]-1-carbapen-2-em-3-carboxylic Acid], the MIC was 0.78 µg/mL (≈ 2.11 µM) in [1] (setting [11]) and 3.13 µg/mL (≈ 8.47 µM) in [2] (setting [12]). Further, the DHP-I susceptibility in series [3] was less than 0.05.
In the same order, the values of `CNCCC[C@@H]1C[C@H](SC2=C(C(=O)O)N3C(=O)[C@H]([C@@H](C)O)[C@H]3[C@H]2C)CN1.Cl` [Example 3, (1R,5S,6S)-6-[(R)-1-Hydroxyethyl]-1-methyl-2-[(2R,4S)-2-[3-(methylamino)propyl]pyrrolidin-4-ylthio]-1-carbapen-2-em-3-carboxylic acid Monohydrochloride] are 0.78 µg/mL, 3.13 µg/mL and 0.07.
With `C[C@@H](O)[C@H]1C(=O)N2C(C(=O)O)=C(SCCN=CN)C[C@H]12` [Imipenem, (5R,6S,8R)-3-[[2-(formimidoylamino)ethyl]thio]-6-(1-hydroxyethyl)-7-oxo-1-azabicyclo[3.2.0]hept-2-en-2-carboxylic acid monohydrate], the MIC in series [1] (MB5002, 16 h) turned out to be 1.56 µg/mL; in series [2] (MB5178, 16 h) it was 25 µg/mL. Moreover, in series [3], the DHP-I susceptibility worked out at 1.0. In addition, the antibacterial activities result in series [4] is recorded as “antibacterial activities of an equal or higher level than thienamycin against various types of bacteria”. Also, the “treating effects / antibacterial activities against resistant bacteria” value in [5] is on record as “does not show adequate treating effects against these resistant bacteria”. Moreover, the “decomposition by renal dehydropeptidase I (DHP-I)” value in series [6] is on record as “likely to be decomposed by DHP-I in the human kidney”. Moreover, the “stability in the solid form or in an aqueous solution” value in series [7] (relative to thienamycin) is on record as “remarkably improved over thienamycin”. Besides, the “toxicity against the kidney” value in [8] is “presents toxicity against the kidney due to the decomposition products”. Also, the β-lactamase resistance entry in [9] is on record as “has β-lactamase resistance”.
Turning to `C[C@@H](O)[C@H]1C(=O)N2C(C(=O)O)=C(SCCN)C[C@H]12` [Thienamycin], the antibacterial activities result in series [4] was “strong antibacterial activities over a wide range against gram positive bacteria and gram negative bacteria”. For the same compound, the “decomposition by renal dehydropeptidase I (DHP-I)” value in [6] is “likely to be decomposed by a certain enzyme in vivo such as renal dehydropeptidase I”. Besides, the chemical stability entry in series [7] (literature, in words) is reported as “chemically unstable”. Besides, the “recovery rate in the urine” value in series [10] is reported as “low”.
For `CC(=O)NC[C@@H]1C[C@H](SC2=C(C(=O)O)N3C(=O)[C@H]([C@@H](C)O)[C@H]3[C@H]2C)CN1` [compound 1, (1R,5S,6S)-2-[(2S,4S)-2-(Acetylaminomethyl)pyrrolidin-4-ylthio]-6-[(R)-1-hydroxyethyl]-1-methyl-1-carbapen-2-em-3-carboxylic Acid], the MIC came out at 6.25 µg/mL (≈ 16.3 µM) in series [1] (setting [11]) and 12.5 µg/mL (≈ 32.6 µM) in series [2] (setting [12]). Besides, the DHP-I susceptibility in series [3] was found to be 0.7.
